From patent publication US10308644B2, “Heterocyclic compounds as immunomodulators” (Incyte Corporation, priority 2016, dated 2019)
pIC50: −log10 of the molar value.

These compounds were tested against PD-1/PD-L1 (Homo sapiens (Human), UniProt Q9NZQ7) (assay: PD-1/PD-L1 Homogeneous Time-Resolved Fluorescence (HTRF) Binding Assay). Details: recombinant human PD-1 (3 nM) and PD-L1 (10 nM), 25° C., PBS pH 7.4.
Procedure, shortened: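 Fc-tagged human PD-1 (25-167, 3 nM) and His-tagged PD-L1 (19-238, 10 nM) preincubated with inhibitor 40 min in PBS pH 7.4, 0.05% Tween-20, 0.1% BSA, 1% DMSO, 25 °C. Binding detected by HTRF (Eu anti-IgG/APC anti-His, 665/620 nm) after 60 min; IC50 from percent control activity.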

PD-1/PD-L1, sequence (Q9NZQ7 19-238): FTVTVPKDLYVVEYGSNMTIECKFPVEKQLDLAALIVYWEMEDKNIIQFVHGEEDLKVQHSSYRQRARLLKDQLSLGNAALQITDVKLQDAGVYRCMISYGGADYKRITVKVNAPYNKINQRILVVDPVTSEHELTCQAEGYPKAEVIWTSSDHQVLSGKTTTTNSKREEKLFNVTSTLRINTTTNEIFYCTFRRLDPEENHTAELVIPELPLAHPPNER

| SMILES | pIC50 |
| --- | --- |
| Cc1c(-c2nc3cc(CN4CC[C@@H](C(=O)NS(C)(=O)=O)C4)cc(C#N)c3o2)cccc1-c1cccc(-c2nc3c(s2)CN(C(C)C)CC3)c1C [Example 238, (R)-1-((7-cyano-2-(3′-(5-isopropyl-4,5,6,7-tetrahydrothiazolo[5,4-c]pyridin-2-yl)-2,2′-dimethyl-[1,1′-biphenyl]-3-yl)benzo[d]oxazol-5-yl)methyl)-N-(methylsulfonyl)pyrrolidine-3-carboxamide] | ≥ 8.00 |
| Cc1c(Nc2nccc3nccnc23)cccc1-c1cccc(-c2nc3cc(CN4CC[C@@H](C(=O)O)C4)cc(C#N)c3o2)c1C [Example 12, (R)-1-((7-cyano-2-(2,2′-dimethyl-3′-(pyrido[4,3-b]pyrazin-5-ylamino)biphenyl-3-yl)benzo[d]oxazol-5-yl)methyl)pyrrolidine-3-carboxylic acid] | ≥ 8.00 |
| Cc1c(-c2nc3cc(CN4CC[C@@H](C(=O)O)C4)cc(C#N)c3o2)cccc1-c1cccc(-c2nc3c(s2)CN(C(=O)CN(C)C)C3)c1C [Example 105, (R)-1-((7-cyano-2-(3′-(5-(2-(dimethylamino)acetyl)-5,6-dihydro-4H-pyrrolo[3,4-d]thiazol-2-yl)-2,2′-dimethylbiphenyl-3-yl)benzo[d]oxazol-5-yl)methyl)pyrrolidine-3-carboxylic acid] | ≥ 8.00 |
| Cc1c(Nc2nccc3cc(CN4CC[C@H](O)C4)cnc23)cccc1-c1cccc(-c2nc3cc(CN(C)CCC(=O)O)cc(Cl)c3o2)c1C [Example 21, (S)-3-(((7-chloro-2-(3′-(3-((3-hydroxypyrrolidin-1-yl)methyl)-1,7-naphthyridin-8-ylamino)-2,2′-dimethylbiphenyl-3-yl)benzo[d]oxazol-5-yl)methyl)(methyl)amino)propanoic acid] | ≥ 8.00 |
| Cc1c(Nc2nccc3cc(CN4CC[C@@H](O)C4)cnc23)cccc1-c1cccc(-c2nc3cc(CN4CC5(CC(C(=O)O)C5)C4)cc(C#N)c3o2)c1C [Example 177, 2-((7-cyano-2-(3′-(3-(((R)-3-hydroxypyrrolidin-1-yl)methyl)-1,7-naphthyridin-8-ylamino)-2,2′-dimethylbiphenyl-3-yl)benzo[d]oxazol-5-yl)methyl)-2-azaspiro[3,3]heptane-6-carboxylic acid] | ≥ 8.00 |
| Cc1c(-c2nc3cc(CN4CC[C@@](C)(C(=O)O)C4)cc(C#N)c3o2)cccc1-c1cccc(NC(=O)c2nc3c(n2C)CC(C)N(C)C3)c1Cl (stereo partly drawn) [Example 161, (3R)-1-((2-(2′-chloro-2-methyl-3′-(1,5,6-trimethyl-4,5,6,7-tetrahydro-1H-imidazo[4,5-c]pyridine-2-carboxamido)biphenyl-3-yl)-7-cyanobenzo[d]oxazol-5-yl)methyl)-3-methylpyrrolidine-3-carboxylic acid] | ≥ 8.00 |
| Cc1c(Nc2nccc3cc(CN4CC[C@@H](O)C4)cnc23)cccc1-c1cccc(-c2nc3cc(CN4CC[C@H](C(=O)O)C4)cc(C#N)c3o2)c1C [Example 28, (S)-1-((7-cyano-2-(3′-(3-(((R)-3-hydroxypyrrolidin-1-yl)methyl)-1,7-naphthyridin-8-ylamino)-2,2′-dimethylbiphenyl-3-yl)benzo[d]oxazol-5-yl)methyl)pyrrolidine-3-carboxylic acid] | ≥ 8.00 |
| Cc1c(Nc2nccc3cc(CN4CC[C@@H](O)C4)cnc23)cccc1-c1cccc(-c2nc3cc(CN[C@H]4C[C@@H](C(=O)O)C4)cc(C#N)c3o2)c1C [Example 180, cis-3-((7-cyano-2-(3′-(3-(((R)-3-hydroxypyrrolidin-1-yl)methyl)-1,7-naphthyridin-8-ylamino)-2,2′-dimethylbiphenyl-3-yl)benzo [d]oxazol-5-yl)methylamino)cyclobutane carboxylic acid] | ≥ 8.00 |
| CCN(C)CC(=O)N1Cc2nc(-c3cccc(-c4cccc(-c5nc6cc(CN7CC[C@@](C)(C(=O)O)C7)cc(C#N)c6o5)c4C)c3C)sc2C1 [Example 218, (R)-1((7-cyano-2-(3′-(5-(2-(ethyl(methyl)amino)acetyl)-5,6-dihydro-4H-pyrrolo[3,4-d]thiazol-2-yl)-2,2′-dimethylbiphenyl-3-yl)benzo[d]oxazol-5-yl)methyl)-3-methylpyrrolidine-3-carboxylic acid] | ≥ 8.00 |
| Cc1c(-c2nc3c(o2)CN(C(=O)CN(C)C)C3)cccc1-c1cccc(-c2nc3cc(CN4CC(C(=O)O)C4)cc(C#N)c3o2)c1C [Example 123, 1-((7-cyano-2-(3′-(5-(dimethylglycyl)-5,6-dihydro-4H-pyrrolo[3,4-d]oxazol-2-yl)-2,2′-dimethyl-[1,1′-biphenyl]-3-yl)benzo[d]oxazol-5-yl)methyl)azetidine-3-carboxylic acid] | ≥ 8.00 |
| Cc1c(-c2nc3cc(CN4CC[C@@H](C(=O)O)C4)cc(Cl)c3o2)cccc1-c1cccc(N2CCC(NCC3(CO)CCC3)CC2)c1Cl [Example 46, (R)-1-((7-chloro-2-(2′-chloro-3′-(4-((1-(hydroxymethyl)cyclobutyl)methylamino)piperidin-1-yl)-2-methylbiphenyl-3-yl)benzo[d]oxazol-5-yl)methyl)pyrrolidine-3-carboxylic acid] | ≥ 8.00 |
| COCC1(C(=O)O)CCN(Cc2cc(C#N)c3oc(-c4cccc(-c5cccc(Nc6nccc7cc(CN8CC[C@@H](O)C8)cnc67)c5C)c4C)nc3c2)C1 (stereo partly drawn) [Example 185, 1-((7-cyano-2-(3′-(3-(((R)-3-hydroxypyrrolidin-1-yl)methyl)-1,7-naphthyridin-8-ylamino)-2,2′-dimethylbiphenyl-3-yl)benzo[d]oxazol-5-yl)methyl)-3-(methoxymethyl)pyrrolidine-3-carboxylic acid] | ≥ 8.00 |
| Cc1c(Nc2nccc3cc(CCN4CC[C@@H](O)C4)cnc23)cccc1-c1cccc(-c2nc3cc(CN4CC[C@@H](C(=O)O)C4)cc(C#N)c3o2)c1C [Example 167, (R)-1-((7-cyano-2-(3′-(3-(2-((R)-3-hydroxypyrrolidin-1-yl)ethyl)-1,7-naphthyridin-8-ylamino)-2,2′-dimethylbiphenyl-3-yl)benzo[d]oxazol-5-yl)methyl)pyrrolidine-3-carboxylic acid] | ≥ 8.00 |

Second part, the compound after the results:

| pIC50 | SMILES |
| --- | --- |
| ≥ 8.00 | Cc1c(-c2nc3cc(CN4CC(C(=O)O)C4)cc(C#N)c3o2)cccc1-c1cccc(-c2nc3c(s2)CN(CCO)CC3)c1C [Example 68, 1-((7-cyano-2-(3′-(5-(2-hydroxyethyl)-4,5,6,7-tetrahydrothiazolo[5,4-c]pyridin-2-yl)-2,2′-dimethyl-[1,1′-biphenyl]-3-yl)benzo[d]oxazol-5-yl)methyl)azetidine-3-carboxylic acid] |
| ≥ 8.00 | Cc1c(Nc2nccc3cc(CN4CC[C@@H](O)C4)cnc23)cccc1-c1cccc(-c2nc3cc(CN4CC[C@@H](C(=O)O)C4)cc(Cl)c3o2)c1C [Example 18, (R)-1-((7-chloro-2-(3′-(3-(((R)-3-hydroxypyrrolidin-1-yl)methyl)-1,7-naphthyridin-8-ylamino)-2,2′-dimethylbiphenyl-3-yl)benzo[d]oxazol-5-yl)methyl)pyrrolidine-3-carboxylic acid] |
| ≥ 8.00 | Cc1c(Nc2nccc3cc(CN4CC[C@@H](O)C4)cnc23)cccc1-c1cccc(-c2nc3cc(CN[C@H]4CCC[C@H]4C(=O)O)cc(C#N)c3o2)c1C [Example 175, (1R,2S)-2-((7-cyano-2-(3′-(3-(((R)-3-hydroxypyrrolidin-1-yl)methyl)-1,7-naphthyridin-8-ylamino)-2,2′-dimethylbiphenyl-3-yl)benzo[d]oxazol-5-yl)methylamino) cyclopentanecarboxylic acid] |
| ≥ 8.00 | Cc1c(Nc2ncnc3cc(CN4CC[C@@H](O)C4)cnc23)cccc1-c1cccc(-c2nc3cc(CN4CCC(C(=O)O)CC4)cc(C#N)c3o2)c1C [Example 207, (R)-1-((7-cyano-2-(3′-(7-((3-hydroxypyrrolidin-1-yl)methyl)pyrido [3,2-d]pyrimidin-4-ylamino)-2,2′-dimethylbiphenyl-3-yl)benzo[d]oxazol-5-yl)methyl)piperidine-4-carboxylic acid] |
| ≥ 8.00 | Cc1c(-c2nc3cc(CN4CC5(CC(C(=O)O)C5)C4)cc(C#N)c3o2)cccc1-c1cccc(-c2nc3c(s2)CN(C(=O)CN(C)[C@H](C)CO)C3)c1C [Example 231, 2-((7-cyano-2-(3′-(5-(2-(((R)-1-hydroxypropan-2-yl)(methyl)amino)acetyl)-5,6-dihydro-4H-pyrrolo[3,4-d]thiazol-2-yl)-2,2′-dimethylbiphenyl-3-yl)benzo[d]oxazol-5-yl)methyl)-2-azaspiro[3.3]heptane-6-carboxylic acid] |
| ≥ 8.00 | Cc1c(-c2nc3cc(CN4CC[C@@](C)(C(=O)O)C4)cc(C#N)c3o2)cccc1-c1cccc(-c2nc3c(s2)CN(C(=O)CN2CC[C@H](O)C2)C3)c1C [Example 221, (R)-1-((7-cyano-2-(3′-(5-(2-((S)-3-hydroxypyrrolidin-1-yl)acetyl)-5,6-dihydro-4H-pyrrolo[3,4-d]thiazol-2-yl)-2,2′-dimethylbiphenyl-3-yl)benzo[d]oxazol-5-yl)methyl)-3-methylpyrrolidine-3-carboxylic acid] |
| ≥ 8.00 | CCN1CCN(CC(=O)N2Cc3nc(-c4cccc(-c5cccc(-c6nc7cc(CN8CC[C@@](C)(C(=O)O)C8)cc(C#N)c7o6)c5C)c4C)sc3C2)CC1 [Example 223, (R)-1-((7-cyano-2-(3′-(5-(2-(4-ethylpiperazin-1-yl)acetyl)-5,6-dihydro-4H-pyrrolo[3,4-d]thiazol-2-yl)-2,2′-dimethylbiphenyl-3-yl)benzo[d]oxazol-5-yl)methyl)-3-methylpyrrolidine-3-carboxylic acid] |
| ≥ 8.00 | Cc1c(-c2nc3cc(CN4CC[C@@](C)(C(=O)O)C4)cc(C#N)c3o2)cccc1-c1cccc(-c2nc3c(s2)CN(C(=O)CN2CC[C@@H](O)C2)C3)c1C [Example 222] |
| ≥ 8.00 | Cc1c(Nc2nccc3cc(CN4CC[C@@H](C(=O)O)C4)cnc23)cccc1-c1cccc(-c2nc3cc(CN[C@@H](C)CO)cc(C#N)c3o2)c1C [Example 211, (R)-1-((8-(3′-(7-cyano-5-(((S)-1-hydroxypropan-2-ylamino)methyl)benzo[d]oxazol-2-yl)-2,2′-dimethylbiphenyl-3-ylamino)-1,7-naphthyridin-3-yl)methyl)pyrrolidine-3-carboxylic acid] |
